In US5110976A, “Insecticidal composition comprising more than one active ingredient” (priority 1985, dated 1992):
≈ marks a conversion by molar mass, not a printed value.

What was measured:
Myzus persicae = experiment: 5 EC formulations on aphid-infected bean plants (Table 22); format: in vivo, green peach aphids (Myzus persicae)
Experimental: 15 bean plants infected with green peach aphids (Myzus persicae) at 6 days' age are cultivated in each pot. At 12 days' age the strongly and uniformly infected plants are selected and sprayed to run-off with emulsions freshly prepared from the formulation according to Example 42. Treatments are carried out with three doses (active ingredient 2.5, 5 and 10 ppm) and four parallels are used (one pot per parallel). The second, fourth and eighth day after treatment the aphids are swept down from the plants to a white paper with a fine brush and the live insects are counted.

A. matricariae [1] = experiment: Direct contact test on pupae (Table 26); format: in vivo
Experimental: Mature pupae of A. matricariae on paprika leaves in Petri-dishes are exposed to a direct spray of the active ingredients. Two or three days before emergence paprika leaves with parasitized pupae are used. The leaves are laid on moistened filter paper in a plastic Petri-dish.
Application of treatment: See Example 57.
The pieces of leaf are transferred after treatment to clean Petri-dish bottoms. The trays are stored in a climatic chamber at 20° C. temperature, 70% relative humidity and a light-dark cycle of 16-8 h. Surviving pupae hatch after 2-3 days. The numbers of hatched and dead pupae are counted.

Aphidinus matricariae = experiment: Residual contact test on adults (Table 25); format: in vivo, adult females
Experimental: Residual contact test on adults of Aphidinus matricariae. Adults of A. matricariae are exposed to residues of the active ingredients freshly applied on glass plates forming cages, then the survivors are counted.
Treatment: test product and control treated with water.
Replicates: at least 3. Plot size (net): 1 cage.
Parasites of known age (24 hours) are used. […]
10 females of A. matricariae are introduced into each cage and supplied with honey as food. The number of females surviving exposure is determined after 1, 5 and 24 hours, in independent runs. Total number of survivors is calculate for each cage.

Colorado potato beetle [2] = experiment: Plot field test on Colorado potato beetle (Table 24); format: in vivo, adults; conditions: 10 g active ingredients/ha
Experimental: The treatments are performed on a 25 m^2 plot strongly infected with Colorado potato beetle. 10 plants per plot are specially marked on which the Colorado potato beetles were counted previously. (During assessment of the number of pests only adults of the second Summer generation are taken into consideration, because at the point of time of the test the ratio of larvae of stages L3 and L4 is negligible). Treatment is accomplished on 25 M^2 plots at a dose of 10 g of active ingredients/ha with aqueous suspensions of the formulations according to Example 37 and three parallels are used. The test is evaluated by counting the leave insects on the marked plants. The average values of three parallel tests are disclosed in Table 24.

A. matricariae [3] = experiment: Direct contact test of pupae (Table 5); format: in vivo
Experimental: Mature pupae of A. matricariae on paprika leaves in Petri dishes are exposed to a direct spray of the active ingredients.
Two or three days before emergence paprika leaves with parasitized pupae are used. The leaves are laid on filter paper in a plastic Petri dish The filter paper is moistened.
Application of treatment: See Example 23.
The pieces of leaf are transferred after treatment to clean Petri dish bottoms The trays are stored in a clinic chamber at 20° C. temperature, 70% relative humidity and a light-dark cycle of […]. Surviving pupae hatch after 2-3 days. The numbers of hatched and dead pupae are counted.

Acanthoscelides obtectus [4] = experiment: 5 EC formulations sprayed on glass plates (Table 21); format: in vivo, bean weevil (Acanthoscelides obtectus), imagos; conditions: 5 EC formulation, 24 hours
Experimental: (§1) The 5 EC formulations prepared according to Example 42 are diluted 50x, 100x, 200x, 400x, 800x and 1600x with water and 0.5 ml doses are sprayed onto glass plates. After drying 10 L. decemlineata imagos are placed on each glass plate and the insects are covered with Petri-dishes. The tests are carried out by using 6 doses and 3 parallels for each dose. The killed insects are counted after 48 hours.
Glass plates are sprayed with 5 EC formulations prepared according to Example 42 in an analogous manner to Example 52. After drying 10 bean weevil (Acanthoscelides obtectus) imagos are placed on each plate and the insects are covered with Petri-dishes. The killed insects are counted after 24 hours. The test is carried out with 6 doses by using 3 parallels for each dose.

Tetranychus urticae = experiment: Potter Tower spray on mite-infested leaves (Table 19); format: in vivo, mites (Tetranychus urticae); conditions: mortality after 24 hours
Experimental: Leaves already infested with mites (Tetranychus urticae) were sprayed under Potter Tower. Mortality after 24 hours on the treated leaves was compared with the control.

L. decemlineata [5] = experiment: 5 EC formulations sprayed on glass plates (Table 20); format: in vivo, imagos; conditions: 5 EC formulation, 48 hours
Experimental: as §1

Colorado potato beetle [6] = experiment: Topical test on Colorado potato beetle (Table 14); format: in vivo, Colorado potato beetle (Leptinotersa decemlineata), imago
Experimental: In Table 14 the activity on Colorado potato beetle is shown.
The test materials are dissolved in 2-ethoxyethanol (Cellosolve). One 0.3 μl drop of the solution is applied to the abdominal sterna of the imago. The treatment is carried out by using 2 parallels and 10 insects for each dose. […]

Phaedon cochleariae = conditions: mixture activity lower than the calculated value; cited from earlier work
Musca domestica = conditions: mixture activity lower than the calculated value; cited from earlier work
Hyphantria cunea [7] = experiment: Topical test on fall webworm (Table 8); format: in vivo, L7-L8 larvae; conditions: 24 h
Experimental: (§2) The active ingredients are dissolved in 2-ethoxyethanol and the solutions are applied in the form of 0.2 μl droplets onto the back of fall webworm (Hyphantria cunea) of L7 -L8 larvae stage. The treated worms are placed on strawberry leaves in Petri-dishes. The test is carried out by using 5 doses; 2 parallels and 10 insects for each dose.

Acanthoscelides obtectus [8] = experiment: 5 EC formulation, insecticidal effect on bean weevil (Table 10); format: in vivo, bean weevil (Acanthoscelides obtectus), imagos; conditions: 24 hours
Experimental: (§3) From a 5 EC formulation according to Example 17 50-, 100-, 200-, 400-, 800- and 1600-fold diluted emulsions are prepared by diluting with water. 0.5 ml of the emulsions are sprayed onto glass plates whereupon after drying 10 Colorado beetles (L. decemlineata) imagos are placed on each glass plate and the insects are covered. The tests are carried out with 6 doses by carrying out 3 parallels for each dose. The killed insects are counted after 48 hours and the percental mortality rate is calculated.
The insecticidal effect is tested on been weevil (Acanthoscelides obtectus) imagos. The killed insects are counted after 24 hours and the percental mortality rate is calculated.

[9] = system: Leptinotarsa decemlineata; experiment: Topical test on potato beetle (Table 6); format: in vivo, imagos; conditions: 24 h
Experimental: The active ingredients are dissolved in 2-ethoxyethanol and […] of the solutions are applied onto the abdominal sterna of potato beetle (Leptinotarsa decemlineata) imagos. The treatments are carried out by using two parallels and 10 insects for each dose. […]

L. decemlineata [10] = experiment: 5 EC formulation sprayed on glass plates (Table 9); format: in vivo, Colorado beetle (L. decemlineata), imagos; conditions: 48 hours
Experimental: as §3

Hyphantria cunea [11] = experiment: Topical test on fall webworm (Table 18); format: in vivo, fall wetworm (Hyphantria cunea), L7-L8 larvae
Experimental: as §2, with “2-ethoxy-ethanol” for “2-ethoxyethanol”, “wetworm” for “webworm”, “[…],” for “5 doses;”, “dose. The killed worms are counted after 24 hours and the percental mortality rate is calculated.” for “dose.”

SMILES: CC1(C)[C@H](C(=O)O[C@H](C#N)c2cccc(Oc3ccccc3)c2)[C@@H]1C=C(Br)Br [deltamethrin]
- Average number of aphids per pot (Myzus persicae; 2.5 ppm, 2 days after treatment (control 1850)): 26
- Average number of aphids per pot (Myzus persicae; 2.5 ppm, 4 days after treatment (control 2780)): 47
- Average number of aphids per pot (Myzus persicae; 2.5 ppm, 8 days after treatment (control 4120)): 137
- Average number of aphids per pot (Myzus persicae; 5.0 ppm, 2 days after treatment (control 1850)): 13
- Average number of aphids per pot (Myzus persicae; 5.0 ppm, 4 days after treatment (control 2780)): 19
- Average number of aphids per pot (Myzus persicae; 5.0 ppm, 8 days after treatment (control 4120)): 29
- Average number of aphids per pot (Myzus persicae; 10.0 ppm, 2 days after treatment (control 1850)): 6
- Average number of aphids per pot (Myzus persicae; 10.0 ppm, 4 days after treatment (control 2780)): 11
- Average number of aphids per pot (Myzus persicae; 10.0 ppm, 8 days after treatment (control 4120)): 23
- Mortality % (A. matricariae [1]; 1 ppm): 0%
- Mortality % (A. matricariae [1]; 5 ppm): 0%
- Mortality % (A. matricariae [1]; 10 ppm): 33.0%
- Mortality % (A. matricariae [1]; 33 ppm): 75.0%
- Mortality % (Aphidinus matricariae; 1 ppm, 1h): 20%
- Mortality % (Aphidinus matricariae; 1 ppm, 5h): 100%
- Mortality % (Aphidinus matricariae; 1 ppm, 24h): 85%
- Mortality % (Aphidinus matricariae; 5 ppm, 1h): 100%
- Average number of live insects/10 plants (Colorado potato beetle [2]; 0 days after treatment (control 211)): 181
- Average number of live insects/10 plants (Colorado potato beetle [2]; 1 day after treatment (control 206)): 7
- Average number of live insects/10 plants (Colorado potato beetle [2]; 3 days after treatment (control 179)): 10
- Average number of live insects/10 plants (Colorado potato beetle [2]; 9 days after treatment (control 183)): 19
- Mortality % (A. matricariae [3]; 1 ppm): 0%
- Mortality % (A. matricariae [3]; 5 ppm): 0%
- Mortality % (A. matricariae [3]; 10 ppm): 33.0%
- Mortality % (A. matricariae [3]; 30 ppm): 75.0%
- Mortality % (Acanthoscelides obtectus [4]; dilution 50x): 75%
- Mortality % (Acanthoscelides obtectus [4]; dilution 100x): 57%
- Mortality % (Acanthoscelides obtectus [4]; dilution 200x): 37%
- Mortality % (Acanthoscelides obtectus [4]; dilution 400x): 20%
- Mortality % (Acanthoscelides obtectus [4]; dilution 800x): 13%
- Mortality % (Acanthoscelides obtectus [4]; dilution 1600x): 7%
- LC50 (Tetranychus urticae; Tetranychus urticae, 24 h, read-out: approx. LD50): ~0.185 µg/mL (≈ 0.366 µM)
- Mortality % (L. decemlineata [5]; dilution 50x): 100%
- Mortality % (L. decemlineata [5]; dilution 100x): 83%
- Mortality % (L. decemlineata [5]; dilution 200x): 67%
- Mortality % (L. decemlineata [5]; dilution 400x): 53%
- Mortality % (L. decemlineata [5]; dilution 800x): 35%
- Mortality % (L. decemlineata [5]; dilution 1600x): 7%
- mortality at 0.05 µg/beetle (Colorado potato beetle [6]; Leptinotarsa decemlineata, topical, read-out: 24 hours' mortality %, 0.05 μg/beetle): 45%
- mortality at 0.1 µg/beetle (Colorado potato beetle [6]; Leptinotarsa decemlineata, topical, read-out: 24 hours' mortality %, 0.10 μg/beetle): 60%
- mortality at 0.2 µg/beetle (Colorado potato beetle [6]; Leptinotarsa decemlineata, topical, read-out: 24 hours' mortality %, 0.20 μg/beetle): 75%
- mortality at 0.4 µg/beetle (Colorado potato beetle [6]; Leptinotarsa decemlineata, topical, read-out: 24 hours' mortality %, 0.40 μg/beetle): 85%

SMILES: CC1(C)[C@H](C=C(Cl)Cl)[C@H]1C(=O)OC(C#N)c1cccc(Oc2ccccc2)c1 (mixture of isomers) [mixture of both tested isomers]
- rate of antagonism (Phaedon cochleariae): 1.46
- rate of antagonism (Musca domestica): 1.42

SMILES: CC1(C)C(C=C(Cl)Cl)C1C(=O)OC(C#N)c1cccc(Oc2ccccc2)c1 (stereo not drawn) [cypermethrin]
- mortality at 0.023 µg/larva (Hyphantria cunea [7]; 0.023 μg/larvae): 0%
- mortality at 0.047 µg/larva (Hyphantria cunea [7]; 0.047 μg/larvae): 0%
- mortality at 0.094 µg/larva (Hyphantria cunea [7]; 0.094 μg/larvae): 25%
- mortality at 0.188 µg/larva (Hyphantria cunea [7]; 0.188 μg/larvae): 50%
- mortality at 0.375 µg/larva (Hyphantria cunea [7]; 0.375 μg/larvae): 75%
- Mortality % (Acanthoscelides obtectus [8]; dilution 50x): 60%
- Mortality % (Acanthoscelides obtectus [8]; dilution 100x): 43%
- Mortality % (Acanthoscelides obtectus [8]; dilution 200x): 20%
- Mortality % (Acanthoscelides obtectus [8]; dilution 400x): 10%
- Mortality % (Acanthoscelides obtectus [8]; dilution 800x): 3%
- Mortality % (Acanthoscelides obtectus [8]; dilution 1600x): 0%
- mortality at 0.05 µg/insect ([9]; 0.05 μg/insect): 0%
- mortality at 0.1 µg/insect ([9]; 0.10 μg/insect): 20%
- mortality at 0.2 µg/insect ([9]; 0.20 μg/insect): 45%
- mortality at 0.4 µg/insect ([9]; 0.40 μg/insect): 75%
- Mortality % (Acanthoscelides obtectus [4]; dilution 50x, 1440 min): 60%
- Mortality % (Acanthoscelides obtectus [4]; dilution 100x, 1440 min): 45%
- Mortality % (Acanthoscelides obtectus [4]; dilution 200x, 1440 min): 20%
- Mortality % (Acanthoscelides obtectus [4]; dilution 400x, 1440 min): 10%
- Mortality % (Acanthoscelides obtectus [4]; dilution 800x, 1440 min): 3%
- Mortality % (Acanthoscelides obtectus [4]; dilution 1600x, 1440 min): 0%
- approx. LD50 (Tetranychus urticae; 1440 min): ~0.120 ppm
- Mortality % (L. decemlineata [5]; dilution 50x, 2880 min): 83%
- Mortality % (L. decemlineata [5]; dilution 100x, 2880 min): 67%
- Mortality % (L. decemlineata [5]; dilution 200x, 2880 min): 50%
- Mortality % (L. decemlineata [5]; dilution 400x, 2880 min): 33%
- Mortality % (L. decemlineata [5]; dilution 800x, 2880 min): 17%
- Mortality % (L. decemlineata [5]; dilution 1600x): 0%
- Mortality % (L. decemlineata [10]; dilution 50x): 83%
- Mortality % (L. decemlineata [10]; dilution 100x): 67%
- Mortality % (L. decemlineata [10]; dilution 200x): 50%
- Mortality % (L. decemlineata [10]; dilution 400x): 33%
- Mortality % (L. decemlineata [10]; dilution 800x): 17%
- Mortality % (L. decemlineata [10]; dilution 1600x): 0%
- 24 hours' mortality % (Colorado potato beetle [6]; 0.05 μg/beetle): 0%
- 24 hours' mortality % (Colorado potato beetle [6]; 0.10 μg/beetle): 20%
- 24 hours' mortality % (Colorado potato beetle [6]; 0.20 μg/beetle): 45%
- 24 hours' mortality % (Colorado potato beetle [6]; 0.40 μg/beetle): 75%
- 24 hours' mortality (Hyphantria cunea [11]; 0.023 (μg/disc), 1440 min): 0%
- 24 hours' mortality (Hyphantria cunea [11]; 0.047 (μg/disc), 1440 min): 10%
- 24 hours' mortality (Hyphantria cunea [11]; 0.094 (μg/disc), 1440 min): 25%
- 24 hours' mortality (Hyphantria cunea [11]; 0.188 (μg/disc), 1440 min): 50%
- 24 hours' mortality (Hyphantria cunea [11]; 0.375 (μg/disc)): 75%
